These results are taken from PMC5352783, “Characterization and cytotoxic effect of aqua-(2,2′,2′′-nitrilotriacetato)-oxo-vanadium salts on human osteosarcoma cells” (Biometals, 2017).

Read-outs that look alike come from different tables or passages of the source. Marks after values point to notes of the source that are not given here.

In series [1] the test system is tumoral cell lines of human origin. On the set-up: method as in Evangelou [2002]; D’Cruz and Uckun [2002]; Dong et al. [2000]. Particulars: leukemia, breast, ovarian, prostate and testicular cancer cells; ref Evangelou [2002]; D’Cruz and Uckun [2002]; Dong et al. [2000]; cited from earlier work.
In series [2] the test system is human osteosarcoma cell (MG-63). As to the kind of experiment: BrdU test, cell proliferation. The series is classed as cell-based. To be noted: 48 h. The protocol: (§1) The cell lines: two human osteosarcoma cell lines (MG-63 and HOS) and untransformed hFOB were used to assess an anti-proliferative and cytotoxic effect, respectively. hFOB cells were grown in a mixture of Dulbecco’s Modified Eagle’s Medium and Ham F12 medium (1:1 ratio), MG-63 and HOS in Eagle’s Minimum Essential Medium also containing sodium pyruvate 110 mg/L and supplemented with 10% fetal bovine serum, 6 μg/mL penicillin-G, and 10 μg/mL streptomycin.
(§2) Cultured cancer cells with 80–90% confluence were used for plating. The adherent cells were trypsinized to detach cells. 100 µL of cells were seeded into each well of the 96-wells plates (1–5 × 10^4 cells per well). The plate was maintained at 37 °C in a incubator for 48 h until 80–90% confluence. Then, old media were discarded and the cells were treated with tested compounds and cisplatin as positive control. The concentrations of investigated compounds used in experiments were carefully selected according to the results obtained from a preliminary concentration–response study (data not shown). […] Fresh solutions of cisplatin were made up for each experiment owing to its instability in water. […]
Fig. 8 The inhibition of the human osteosarcoma cell (MG-63) proliferation after an incubation with investigated compounds assessed with the BrdU-test. […] Data are expressed as mean values ± SD from three experiments. ***p < 0.001 versus control

Series [3] can be described thus: Potentiometric titration, equilibrium constants of complex species in aqueous solution. The format is physicochemical. To be noted: for Logarithm of equilibrium constant, reaction 1: A + H3O^+ ⇋ AH^+ + H2O (AH^+ = bpyH^+ or phenH^+) / Logarithm of equilibrium constant, reaction 2 ([drawing 1]) / Logarithm of equilibrium constant, reaction 3 ([drawing 2]): 298.15 K, ionic strength 0.1 M NaClO4, standard deviation in parentheses. The protocol: Potentiometric titrations were performed at 298.15 K by using Cerko Lab System microtitration unit fitted with 5‐mL Hamilton’s syringe and pH‐combined electrode (Schott‐BlueLine 16 pH type) All details for the measuring devices and the experimental setup were described in (Wyrzykowski et al. [2014]). The ionic strength was maintained at 0.1 M using NaClO4. The 6 mM [bpyH][VO(nta)(H2O)]H2O and [phenH][VO(nta)(H2O)](H2O)0.5 solutions (Vo = 5.0 mL) were potentiometrically titrated with a standardized NaOH solution (0.098 M). The concentration distribution of various complex species existing in the solution as a function of pH was obtained using the HySS program (Alderighi et al. [1999]).
The potentiometric titration method has been applied for studying the stability of [bpyH][VO(nta)(H2O)]H2O and [phenH][VO(nta)(H2O)](H2O)0.5 in aqueous solutions. The logarithm of the overall equilibrium constants of the complex species (Table 5) were refined by least-squares calculations using the Hyperquad2008 (ver. 5.2.19) computer program (Gans et al. [1996]).

Series [4] relates to human osteosarcoma cell (HOS). The series is described as follows: BrdU test, cell proliferation. The format is cell-based. Particulars: 48 h. The protocol:
as §1, §2
Fig. 9 The inhibition of the human osteosarcoma cell (HOS) proliferation after an incubation with investigated compounds assessed with the BrdU-test. […] Data are expressed as mean values ± SD from three experiments. ***p < 0.001 versus control

Series [5] has as its system MC3T3E1 derived from mouse calvaria. Particulars: cited from earlier work.
The next series concerns DNA. To be noted: comparison of the three VO-oda compounds; cited from earlier work.
Series [6] has as its system UMR106 derived from rat osteosarcoma cells. Particulars: cited from earlier work; for Cytotoxicity, normal versus tumoral osteoblasts: MC3T3E1 (normal) versus UMR106 (tumoral); for Cellular proliferation: UMR106.
The next series concerns human osteosarcoma cells. More on the design: method as in Yodoshi et al. [2007]. To be noted: rank among the three VO-oda compounds; ref Yodoshi et al. [2007]; cited from earlier work.
The test system of series [7] is streptozotocin-induced (STZ) diabetic rats. More on the design: method as in Thompson and Orvig [2006]. Particulars: oral, ref Thompson and Orvig [2006]; cited from earlier work.
The test system of series [8] is animal and human cancer cell lines. On the set-up: method as in earlier work. To be noted: ref Havelek et al. [2012]; Vinklarek et al. [2004]; Gleeson et al. [2009]; Palackova et al. [2007]; cited from earlier work.
The conditions of series [9]: at 25 °C; cited from earlier work.

Turning to `Cc1ccnc2c1ccc1c(C)ccnc12.Cc1ccnc2c1ccc1c(C)ccnc12.O=S(=O)([O-])[O-].[O]=[V+2]` [Metvan], the Apoptosis entry in series [1] is “induces apoptosis”.
`O.O=C([O-])CN(CC(=O)[O-])CC(=O)[O-].[O]=[V+2].c1cnc2c(c1)ccc1ccc[nH+]c12` [[phenH][VO(nta)(H2O)](H2O)0.5]: the “Anti-proliferative activity (BrdU incorporation)” value in series [2] (1-100 μM) is recorded as “most effective anti-proliferative activity”. In [2] (BrdU test), the “Anti-proliferative activity compared with cis-Pt(NH3)2Cl2” value was “significantly higher”. In series [3], the “Logarithm of equilibrium constant, reaction 1: A + H3O^+ ⇋ AH^+ + H2O (AH^+ = bpyH^+ or phenH^+)” value was 5.00 (0.04)^a; the “Logarithm of equilibrium constant, reaction 2 ([drawing 1])” value is listed as 7.93 (0.07); the “Logarithm of equilibrium constant, reaction 3 ([drawing 2])” value is −19.91 (0.08). Moreover, in series [4] (1-100 μM), the “Anti-proliferative activity (BrdU incorporation)” value is “most effective anti-proliferative activity”. Besides, the “Anti-proliferative activity compared with cis-Pt(NH3)2Cl2” value in [4] (BrdU test) is on record as “significantly higher”.
As for “2,2′-bipyridinium aqua-(2,2′,2′′-nitrilotriacetato)-oxo-vanadium monohydrate [[bpyH][VO(nta)(H2O)]H2O]”, in series [3], the “Logarithm of equilibrium constant, reaction 1: A + H3O^+ ⇋ AH^+ + H2O (AH^+ = bpyH^+ or phenH^+)” value is given as 4.47 (0.03)^a; the “Logarithm of equilibrium constant, reaction 2 ([drawing 1])” value is recorded as 7.80 (0.06); the “Logarithm of equilibrium constant, reaction 3 ([drawing 2])” value is recorded as −19.94 (0.06).
Regarding `O=C([O-])COCC(=O)[O-].[O]=[V+2]` [VO(oda)], the Cellular proliferation entry in series [5] (ref Rivadeneira et al. [2010]) is listed as “inhibition of a cellular proliferation”. The “DNA cleavage (nuclease activity)” value in the series with DNA is on record as “similar”. For the same compound, in [6] (ref Rivadeneira et al. [2010]), the “Cytotoxicity, normal versus tumoral osteoblasts” value was “stronger in the normal (MC3T3E1) than in the tumoral (UMR106) osteoblasts” and the Cellular proliferation result is recorded as “inhibition of a cellular proliferation”.
Consider `O=C([O-])COCC(=O)[O-].[O]=[V+2].c1ccc(-c2ccccn2)nc1` [VO(oda)(bpy)], for which, in the series on DNA, the “DNA cleavage (nuclease activity)” value is “similar”. For the same compound, the “Cytotoxicity, normal versus tumoral osteoblasts” value in series [6] (ref León et al. [2012b]) is given as “statistically stronger in the tumoral cells”.
For the compound `O=C([O-])COCC(=O)[O-].[O]=[V+2].c1cnc2c(c1)ccc1cccnc12` [VO(oda)(phen)], in the series with human osteosarcoma cells, the Antitumor action result is listed as “most potent antitumor action”. Moreover, in series [5] (ref León et al. [2012b]), the Cellular proliferation entry is on record as “inhibition of the cellular proliferation”. For the same compound, the “DNA cleavage (nuclease activity)” value in the series with DNA was “stronger effect”. In series [6] (ref León et al. [2012b]), the “Cytotoxicity, normal versus tumoral osteoblasts” value was “stronger in the normal than in the tumoral osteoblasts” and the Cellular proliferation result is recorded as “inhibition of the cellular proliferation”.
For the compound `CCc1occc(=O)c1[O][V](=[O])[O]c1c(CC)occc1=O` [BEOV, VO(Etmaltolato)2], the “Effect on plasma glucose levels” value in series [7] was “lower plasma glucose levels”.
Regarding `[Cl-].[Cl-].[V+4].c1cc[cH-]c1.c1cc[cH-]c1` [[VCp2Cl2], bis(cyclopentadienyl) dichloro-V(IV)], the “In vitro activity against cancer cell lines” value in series [8] is given as “high in vitro activity”.
Consider `Cc1occc(=O)c1[O-].Cc1occc(=O)c1[O-].[O]=[V+2]` [BMOV, VO(maltolato)2], for which the “Effect on plasma glucose levels” value in series [7] was “lower plasma glucose levels”.
With `O.O=C([O-])CN(CC(=O)[O-])CC(=O)[O-].[O]=[V+2]` [[VO(nta)(H2O)]^−], the “pH up to which the aqua complex is stable” value in series [3] (aqueous solution, species distribution from the equilibrium constants) was at most 5.
Consider cis-Pt(NH3)2Cl2 [cisplatin], for which, in series [9], the water solubility is given as 0.253 g/100 mL.
